Reference: publication PMC9077138, “An investigation on 3-acetyl-7-methoxy-coumarin Schiff bases and their Ru(II) metallates with potent antiproliferative activity and enhanced LDH and NO release” (RSC Advances, 2018)

What was measured:
Trichophyton rubrum = test: In vitro antifungal assay (zone of inhibition, MIC); type: cell-based
Experimental: (§1) The free ligands and their cyclometallated ruthenium(II) carbonyl complexes were screened for their in vitro antimicrobial activity against certain pathogenic bacterial and fungal species at three different concentrations using disc diffusion method.
(§2) Antimicrobial activities of [RuHClCO(PPh3)3], ligands H2L^1–4 and new organometallic Ru(II) complexes (1–4) were evaluated by agar well diffusion method[76] as reported, by taking Staphylococcus aureus, Streptococcus pneumonie, Pseudomonas aeruginosa, Salmonella paratyphi and fungus such as Candida albicans, Trichophyton rubrum, Aspergillus niger, Aspergillus fumigatus and Candida tropicalis. The above said all test organisms were obtained from the MTCC, Chandigarh, India and Microbiological laboratory, Coimbatore, Tamil Nadu, India. The antimicrobial activity of the test compounds was checked with various concentrations (25 μg ml^−1, 50 μg ml^−1 and 100 μg ml^−1) against all the test pathogens. Gentamicin and ketoconazole were used as positive controls to study the antibacterial and antifungal activities respectively. Each experiment was performed in triplicate and the results are represented as average zone of inhibition and minimum inhibitory concentration of all the test pathogens.

Aspergillus niger = test: as above; type: cell-based
Experimental: as §1, §2

Candida tropicalis = test: as above; type: cell-based
Experimental: as §1, §2

Aspergillus fumigatus = test: as above; type: cell-based
Experimental: as §1, §2

BSA = target: T1, BSA (Bos taurus, UniProt P02769); test: BSA tryptophan fluorescence quenching; type: binding, bovine; details: for Quenching constant kq / Stern–Volmer KSV / number of binding sites n / Binding constant Kbin: BSA; for Binding constant Kbin: Scatchard equation; for quenching of BSA fluorescence intensity at 346 nm: compounds 10–100 μM, BSA 10 μM
T1 construct: purchased HiMedia (Mumbai, India)
Text: (§3) The obtained results confirmed the interaction of the ligands and complexes with serum albumins. The absorption spectra of the serum albumins in the absence and presence of ligands H2L^1–4 and the complexes 1–4 are given in Fig. S29 in the ESI. ^† On adding ligands and complexes 1–4 to albumins, the absorbance intensity of serum albumins was decreased with a red shift of 2 nm. The observed changes indicated a static quenching mechanism of serum albumins by the ligands and complexes (1–4). To obtain a quantitative insight into the quenching progression, the Stern–Volmer quenching constant (KSV) and the quenching constant (Kq) were calculated from the Stern–Volmer equation using the Io/ICorrversus [Q] plot (Table 4).[53] The observed linearity in the plots (Fig. 13) indicated the ability of the compounds to quench the emission intensity of serum albumins and the order of quenching constant of the compounds is complex 3 > complex 2 > complex 1 > complex 4 > H2L^3 > H2L^2 > H2L^1 > H2L^4.
(§4) Furthermore, the equilibrium binding constant and number of binding sites were evaluated by using the Scatchard equation. The Kbin values were derived from the graph between log[(Fo − F)/F] and log[Q] From the results, we confirmed that the Ru(II) complexes having a large hydrophobic area can interact more efficiently than the ligands with serum albumins via a static pathway. The higher binding affinity of the complexes over the ligands may be due to the efficient binding of protein moiety with the complexed metal ions. Here, the binding affinities of the complexes with serum albumins followed the same order as those with DNA binding studies, complex 3 > complex 2 > complex 1 > complex 4 > H2L^3 > H2L^2 > H2L^1 > H2L^4. Variation in the binding affinity of the compounds with serum albumins depends on the electron-donating ability of the ligand, i.e. the substitution on the N-terminal nitrogen atom. The binding capability of the compounds to serum albumins increased with the increase in electron-donating ability of the substituent on the terminal nitrogen of the coordinated thiosemicarbazone ligand. The obtained quenching constant and binding constant values of these new cyclometallated ruthenium(II) complexes agree well with those reported for other ruthenium(II) complexes.[31,44,54–56] […]
(§5) Serum albumin binding study
(§6) Bovine Serum Albumin (BSA) and human serum albumin were purchased from Hi Media, The protein binding study was performed by tryptophan fluorescence quenching experiments using bovine serum albumin (BSA, 10 µM) or human serum albumin (HSA, 10 µM) as the substrate in phosphate buffer (pH= 7.2). Quenching of the emission intensity of tryptophan residues of BSA at 346 nm (excitation wavelength at 280 nm)/ HSA at 345 nm (excitation wavelength at 290 nm) was monitored using ligands and complexes as quenchers with increasing concentration (10-100µM). Synchronous fluorescence spectra of BSA or HSA with various concentrations of the complexes were obtained from 300 to 400 nm when ∆λ = 60 nm and from 290 to 500 nm when ∆λ = 15 nm. For synchronous fluorescence spectra, the same concentrations of serum albumins and the compounds were also used and the spectra were measured at two different Δλ values (difference between the excitation and emission wavelengths of BSA), such as 15 and 60 nm. Fluorescence and synchronous measurements were performed using a 1 cm quartz cell on a JASCO FP 6600 spectrofluorimeter.
(§7) The quenching data can be analyzed according to the Stern-Volmer equation, […]
(§8) Io/Icorr =K SV[Q]+1 Eq (S2) where Iₒ is the emission intensity in the absence of compound, Icorr is the corrected emission intensity in the presence of compound, KSV is the quenching constant and [Q] is the concentration of the compound.
(§9) In order to correct the inner filter effect, the following equation used Icorr = Iobs*10 (Aexc+Aem)/2 where Icorr is the corrected fluorescence value, Iobs the measured fluorescence value, Aexc is […]

[1] = Total antioxidant capacity, phosphomolybdate method
Experimental: It has been reported that free radical species such as reactive oxygen species (ROS), are involved in the pathogenesis of various diseases through effects on DNA directly and by acting as a tumour promoter.[59,60] The DPPH free radical scavenging activity of the ligands and complexes were studied and quantitatively antioxidant properties were determined by using phosphomolybdate method. We knew that the inhibitory effects of the tested compounds on DPPH radical are concentration dependent and the suppression ratio increases with increasing sample concentrations (Fig. S36 ^†). […] In the phosphomolybdenum assay, the antioxidant activity is expressed as the number of equivalents of ascorbic acid (Table 6). The total antioxidant activity of the compounds is in the following order complex 3 > complex 2 > complex 1 > complex 4 > H2L^3 > H2L^2 > H2L^1 > H2L^4 > ascorbic acid > [RuHClCO(PPh3)3]. The results concluded that the metal complexes are better antioxidants than their parent ligands which may be due to the chelation of the ligands to metal ion.[35] The radical scavenging ability of the new complexes is greater than that of few other reported ruthenium complexes, containing Schiff base ligands.[9]
The DPPH radical scavenging activity of the compounds have been carried out according to the reported method.[74] In this study, various concentrations of the experimental standard ascorbic acid, [RuHCl(CO)(PPh3)3], ligands (20–100 μM) and complexes (2–10 μM) in methanol were taken. Total antioxidant activity of the compounds was determined by the phosphomolybdate method.[75]

HSA = target: T2, HSA (Homo sapiens, UniProt P02768); test: HSA tryptophan fluorescence quenching; type: binding; details: for Quenching constant kq / Stern–Volmer KSV / number of binding sites n / Binding constant Kbin: HSA; for Binding constant Kbin: Scatchard equation; for decrease of HSA fluorescence intensity: compounds 10–100 μM, HSA 10 μM
T2 construct: purchased HiMedia (Mumbai, India)
Text: as §3, §4, §5, §6, §7, §8, §9

T1 sequence (P02769 25-607): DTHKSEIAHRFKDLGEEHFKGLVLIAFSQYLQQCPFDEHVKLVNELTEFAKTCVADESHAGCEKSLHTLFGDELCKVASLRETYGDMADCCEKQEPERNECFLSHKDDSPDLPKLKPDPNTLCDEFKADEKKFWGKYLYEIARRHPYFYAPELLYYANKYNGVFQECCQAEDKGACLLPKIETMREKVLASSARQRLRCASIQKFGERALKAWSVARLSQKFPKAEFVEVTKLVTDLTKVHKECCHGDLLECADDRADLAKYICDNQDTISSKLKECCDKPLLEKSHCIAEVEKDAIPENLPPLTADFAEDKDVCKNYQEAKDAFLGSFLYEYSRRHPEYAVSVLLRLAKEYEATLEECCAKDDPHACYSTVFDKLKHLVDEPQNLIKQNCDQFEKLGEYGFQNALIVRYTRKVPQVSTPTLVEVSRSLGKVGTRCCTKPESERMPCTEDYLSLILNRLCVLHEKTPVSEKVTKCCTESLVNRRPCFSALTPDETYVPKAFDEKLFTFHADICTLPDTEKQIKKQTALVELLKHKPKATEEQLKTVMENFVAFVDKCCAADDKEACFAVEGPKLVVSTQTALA
T2 sequence (P02768 25-609): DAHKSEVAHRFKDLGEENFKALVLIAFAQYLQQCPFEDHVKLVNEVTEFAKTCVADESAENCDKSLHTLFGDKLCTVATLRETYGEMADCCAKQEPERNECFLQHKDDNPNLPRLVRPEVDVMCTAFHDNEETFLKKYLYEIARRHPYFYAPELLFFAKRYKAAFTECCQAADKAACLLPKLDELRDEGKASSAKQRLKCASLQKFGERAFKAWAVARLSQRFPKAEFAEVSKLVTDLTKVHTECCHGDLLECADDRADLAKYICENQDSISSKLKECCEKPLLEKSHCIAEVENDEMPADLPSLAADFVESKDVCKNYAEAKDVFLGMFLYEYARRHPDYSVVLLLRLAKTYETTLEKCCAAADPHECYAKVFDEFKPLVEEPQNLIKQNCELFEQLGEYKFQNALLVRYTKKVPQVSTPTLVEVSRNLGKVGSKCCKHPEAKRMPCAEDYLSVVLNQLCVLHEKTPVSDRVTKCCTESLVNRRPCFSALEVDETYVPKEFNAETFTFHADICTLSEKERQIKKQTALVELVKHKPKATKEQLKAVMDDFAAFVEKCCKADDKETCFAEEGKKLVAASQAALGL

| Compound | Minimum inhibitory concentration (MIC); head: IC50 VALUES (Trichophyton rubrum) [µM] | Zone of inhibition (Trichophyton rubrum; 50 µg/ml) [mm] | Zone of inhibition (Trichophyton rubrum; 100 µg/ml) [mm] | Minimum inhibitory concentration (MIC); head: IC50 VALUES (Aspergillus niger) [µM] | Zone of inhibition (Aspergillus niger; 50 µg/ml) [mm] | Zone of inhibition (Aspergillus niger; 100 µg/ml) [mm] | Minimum inhibitory concentration (MIC); head: IC50 VALUES (Candida tropicalis) [µM] | Zone of inhibition (Candida tropicalis; 50 µg/ml) [mm] | Zone of inhibition (Candida tropicalis; 100 µg/ml) [mm] | Minimum inhibitory concentration (MIC); head: IC50 VALUES (Aspergillus fumigatus) [µM] | Zone of inhibition (Aspergillus fumigatus; 50 µg/ml) [mm] | Zone of inhibition (Aspergillus fumigatus; 100 µg/ml) [mm] | Quenching constant kq (BSA) | Stern–Volmer KSV (BSA) | number of binding sites n (BSA) | Binding constant Kbin (BSA) | quenching of BSA fluorescence intensity at 346 nm (BSA) [%] | Total antioxidant capacity [1] | Quenching constant kq (HSA) | Stern–Volmer KSV (HSA) | also measured |
| --- | --- | --- | --- | --- | --- | --- | --- | --- | --- | --- | --- | --- | --- | --- | --- | --- | --- | --- | --- | --- | --- |
| CNC1=N[N+]2=C(C)c3[c](c4ccc(OC)cc4oc3=O)[Ru-4]2([C]#[O+])([P+](c2ccccc2)(c2ccccc2)c2ccccc2)([P+](c2ccccc2)(c2ccccc2)c2ccccc2)[S]1 [Complex 2, [Ru(7MAC-mtsc)(CO)(PPh3)2]] | 15.14 ± 0.24 | 12.16±0.15 | 17.45±0.35 | 14.67 ± 0.31 | 11.56±0.24 | 19.63±0.12 | 13.46 ± 0.15 | 12.64±0.15 | 19.52±0.27 | 14.70 ± 0.1 | 12.61±0.71 | 17.36±0.45 | 2.382 ± 0.011 × 10^12 M^−1 s^−1 | 2.382 ± 0.011 × 10^4 M^−1 | 1.0478 ± 0.031 | 3.323 ± 0.027 × 10^4 M^−1 | 71.15 | 58.27 ± 0.46 μg ascorbic acid equivalents/ml | 1.088 ± 0.030 × 10^12 M^−1 s^−1 | 1.088 ± 0.030 × 10^4 M^−1 | number of binding sites n (HSA): 1.1859 ± 0.004; Binding constant Kbin (HSA): 6.341 ± 0.039 × 10^4 M^−1; decrease of HSA fluorescence intensity (HSA): 50.56% |
| CCNC1=N[N+]2=C(C)c3[c](c4ccc(OC)cc4oc3=O)[Ru-4]2([C]#[O+])([P+](c2ccccc2)(c2ccccc2)c2ccccc2)([P+](c2ccccc2)(c2ccccc2)c2ccccc2)[S]1 [Complex 3, [Ru(7MAC-etsc)(CO)(PPh3)2]] | 14.97 ± 0.31 | 13.25±0.52 | 17.44±0.61 | 14.44 ± 0.21 | 12.73±0.55 | 18.43±0.12 | 13.37 ± 0.16 | 13.55±0.34 | 17.91±0.31 | 14.44 ± 0.27 | 13.53±0.13 | 18.31±0.21 | 1.756 ± 0.080 × 10^12 M^−1 s^−1 | 1.756 ± 0.080 × 10^4 M^−1 | 1.266 ± 0.0290 | 17.49 ± 0.030 × 10^4 M^−1 | 63.19 | 62.71 ± 0.37 μg ascorbic acid equivalents/ml | 1.189 ± 0.030 × 10^12 M^−1 s^−1 | 1.189 ± 0.030 × 10^4 M^−1 | number of binding sites n (HSA): 1.2027 ± 0.030; Binding constant Kbin (HSA): 7.194 ± 0.041 × 10^4 M^−1; decrease of HSA fluorescence intensity (HSA): 53.45% |
| COc1ccc2[c]3c(c(=O)oc2c1)C(C)=[N+]1N=C(Nc2ccccc2)[S][Ru-4]31([C]#[O+])([P+](c1ccccc1)(c1ccccc1)c1ccccc1)[P+](c1ccccc1)(c1ccccc1)c1ccccc1 [Complex 4, [Ru(7MAC-ptsc)(CO)(PPh3)2]] | 15.52 ± 0.27 | 12.41±0.56 | 18.42±0.18 | 14.80 ± 0.25 | 11.55±0.26 | 17.66±0.13 | 13.54 ± 0.21 | 12.43±0.12 | 17.13±0.57 | 14.45 ± 0.13 | 12.36±0.52 | 18.15±0.45 | 1.454 ± 0.030 × 10^12 M^−1 s^−1 | 1.454 ± 0.030 × 10^4 M^−1 | 1.0486 ± 0.019 | 2.178 ± 0.019 × 10^4 M^−1 | 58.68 | 54.99 ± 0.65 μg ascorbic acid equivalents/ml | 0.675 ± 0.008 × 10^12 M^−1 s^−1 | 0.675 ± 0.008 × 10^4 M^−1 | number of binding sites n (HSA): 0.9118 ± 0.025; Binding constant Kbin (HSA): 0.297 ± 0.024 × 10^4 M^−1; decrease of HSA fluorescence intensity (HSA): 39.80% |
